Experimental data taken from BindingDB's records for doi:10.1073/pnas.97.2.925 (Vanderbilt University School of Medicine, 2000).

Columns and labels:
[1] = molecular target: T1, Prostaglandin G/H synthase 2 (Homo sapiens, UniProt P35354)
T1 sequence (P35354 whole entry): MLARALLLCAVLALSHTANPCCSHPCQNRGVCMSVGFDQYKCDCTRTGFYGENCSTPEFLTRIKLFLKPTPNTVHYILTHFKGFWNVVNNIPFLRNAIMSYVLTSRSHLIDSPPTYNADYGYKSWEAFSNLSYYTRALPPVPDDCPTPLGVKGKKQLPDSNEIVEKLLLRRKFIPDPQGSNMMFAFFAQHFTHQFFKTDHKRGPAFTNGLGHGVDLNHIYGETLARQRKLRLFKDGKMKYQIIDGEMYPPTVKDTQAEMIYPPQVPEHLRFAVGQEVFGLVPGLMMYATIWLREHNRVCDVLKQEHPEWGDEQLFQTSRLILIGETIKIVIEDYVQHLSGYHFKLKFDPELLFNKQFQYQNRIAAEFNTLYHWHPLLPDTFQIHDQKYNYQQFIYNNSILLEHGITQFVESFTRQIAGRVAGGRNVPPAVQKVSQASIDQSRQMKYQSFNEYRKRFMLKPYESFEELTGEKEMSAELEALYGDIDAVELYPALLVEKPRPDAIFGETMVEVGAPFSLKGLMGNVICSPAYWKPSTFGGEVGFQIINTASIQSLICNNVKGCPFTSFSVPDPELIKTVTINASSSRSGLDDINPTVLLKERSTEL

[2] = molecular target: T2, Prostaglandin G/H synthase 1 (Ovis aries, UniProt P05979)
T2 sequence (P05979 whole entry): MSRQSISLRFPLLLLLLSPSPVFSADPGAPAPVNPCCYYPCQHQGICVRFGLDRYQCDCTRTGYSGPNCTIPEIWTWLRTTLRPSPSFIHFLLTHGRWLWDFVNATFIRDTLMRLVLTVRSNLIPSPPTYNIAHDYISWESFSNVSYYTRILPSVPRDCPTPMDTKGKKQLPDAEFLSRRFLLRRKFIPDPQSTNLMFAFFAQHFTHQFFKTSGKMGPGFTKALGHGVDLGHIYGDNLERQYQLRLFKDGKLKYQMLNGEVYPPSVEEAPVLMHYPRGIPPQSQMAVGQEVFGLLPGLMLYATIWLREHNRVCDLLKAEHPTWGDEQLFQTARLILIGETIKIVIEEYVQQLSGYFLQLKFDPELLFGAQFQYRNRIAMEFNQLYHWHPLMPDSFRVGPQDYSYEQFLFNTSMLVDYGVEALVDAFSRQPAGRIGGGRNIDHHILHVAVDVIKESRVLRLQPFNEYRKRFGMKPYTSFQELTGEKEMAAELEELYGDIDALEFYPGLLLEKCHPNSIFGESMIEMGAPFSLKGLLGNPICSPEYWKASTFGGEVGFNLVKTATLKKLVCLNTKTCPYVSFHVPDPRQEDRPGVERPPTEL

Cc1ccc(Cl)c(Nc2ccccc2C(=O)NCC(=O)O)c1Cl [2-({2-[(2,6-dichloro-3-methylphenyl)amino]phenyl}formamido)acetic acid]
IC50 [1]: 400 nM
IC50 [2]: 300 nM
